Laboratory results as given in patent US20110146678A1, “PROCESS FOR IMPROVING CRYSTALLINITY” (priority 2008, published 2011).

Experiments:
Assay type in all cases: physicochemical
[1] = Specific surface area by five-point BET nitrogen adsorption
Protocol: The surface roughness and surface area of micronized Fluticasone Propionate (FP), sample 3 of FP prepared by the current invention and sample 4 of FP, as described in Example 2, were determined using atomic force microscopy (AFM) and BET surface area analysis, respectively. The roughness of imaged areas was quantified using the mean (Ra) and root mean square (Rq) of the variations in the height of the imaged surface. Furthermore, the surface area of samples was determined by a five-point BET nitrogen adsorption analysis. The specific surface areas of the FP samples were measured using a Gemini 2360 surface area analyser (Micromeritics Instrument Corporation, Norcross, USA). A five-point BET nitrogen adsorption analysis was carried out after degassing the samples for 24 hours in a FlowPrep 060 degasser (Micromeritics Instrument Corporation, Norcross, USA).

[2] = Aerosolisation efficiency of combination DPI formulations FP/micronized SX 500/50, NGI via Rotahaler and Cyclohaler, incl. 1 month storage; conditions: for % FPF under stressed storage conditions: 1 month at 25° C./75% RH; for FPF of FP compared with micronized sample: T=0, Cyclohaler; for FPF of FP compared with micronized sample / FPF of FP compared with other samples: 500/50 blend with micronized SX; for FPF of FP compared with other samples: T=0, Rotahaler
Protocol: The aerosolisation efficiency of samples 2, 3 and 4 of fluticasone propionate (FP) produced as described in Example 2 was assessed in combination dry powder inhaler (DPI) formulations containing micronized salmeterol xinafoate (SX) using a Rotahaler® unit dose DPI device (GSK, Ware, UK) and Cyclohaler® unit dose DPI device (TEVA Pharmaceuticals, Netherlands).
The aerosolization efficiency was evaluated in combination DPI formulations also containing micronized SX. Each combination formulation contained 0.16000 g FP (sample 2, 3 or 4), 0.02320 g SX and 3.8168 g lactose (ML001, DMV-Fonterra, Vehgel, Netherlands) and was prepared by geometric mixing. Following this, each blend was subsequently prepared using a Turbula T2F (Willy A Bachofen A G, Basel, Switzerland) at 46 rpm for 45 minutes. The blend strength of each combination formulation equated to 500 μg FP and 50 μg Salmeterol base. This matches the dose strength of Advair 500/50. A sample of Advair 500/50 was used as the micronized example. The aerolisation efficiency of four different formulations containing FP samples 2, 3, 4 or micronized FP was measured.
Following content uniformity testing, 12.5±0.5 mg of each blend was loaded into size 3 hydroxypropylmethyl cellulose capsules (HPMC, Shionogi Qualicaps S A, Basingstoke, UK). The capsules were stored at 44% RH for 24 h prior to in vitro performance testing.
Testing was performed using a Next Generation Impactor (NGI) with pre-separator, which was connected to a vacuum pump (GE Motors). Prior to testing, the pre-separator was filled with 15 ml of mobile phase and the cups of the NGI cups were coated with 1% v/v silicone oil in hexane to eliminate particle bounce.
For each experiment, two individual capsules of the same formulation were discharged into the NGI at 60 Lpm for 4 s via a Rotahaler (GSK, Ware, UK) and 90 Lpm for 2.8 s via a Cyclohaler (TEVA Pharmaceuticals, Netherlands) to ensure both devices were operated such that 4 kPa pressure drop was generated.
Additionally, blisters from a commercially available Advair 500/50 Diskus (GSK, USA) were emptied and 12.5 mg of formulation was transferred into size 3 HPMC capsules and discharged into a NGI at 60 Lpm for 4 s via a Rotahaler and at 90 Lpm for 2.8 s via a Cyclohaler.
Following aerosolization, the NGI apparatus was dismantled and the inhaler, capsules and each part of the NGI was washed down into known volumes of HPLC mobile phase. The mass of drug deposited on each part of the NGI was determined by HPLC. This protocol was repeated three times for each blend, following which, the fine particle dose (FPD) and fine particle fraction of the loaded dose (FPFLD) were determined. The FPD represented the mass of drug that was collected on stages 3-8 of the NGI.

[3] = Cohesive-adhesive balance (CAB) by AFM colloid probe; conditions: for adhesive FP-Lactose interactions, times greater than cohesive FP-FP interactions (CAB analysis): equivalent contact geometry, 20° C., 45% RH; for adhesiveness to lactose (FIG. 29): comparison between batches
Source text: The cohesive-adhesive balance (CAB) approach of the AFM colloid probe technique is a development that enables direct quantification of the cohesive and adhesive nature—“the force balance” of an API within a formulation. It is a commercially available screening tool in determining the cohesive/adhesive force interactions between potential formulation components using milligrams or less of material.
The CAB approach measures the forces of interaction between API particles, mounted as colloid AFM probes, and well-defined crystalline surfaces of the API and carrier substrates. A CAB plot generated from the interaction of a number of probes allows a characteristic measurement of the cohesive nature of the API, in relation to its adhesive propensity with an excipient material to be quantified. The development of the CAB approach has overcome a number of the limitations associated with conventional AFM colloid probe methodologies, including issues regarding instrumental validation and the need to determine the true area of contact of the interacting surfaces. […] Drug-carrier combinations with a higher CAB ratio, such as >1, results in a higher fine particle fraction (FPF) upon aerosolisation, despite potential difference between the carriers in terms of size, shape, roughness and flowability. Drug-carrier combinations with a lower CAB ratio, such as, <1 result in greater […] of the active particle to the carrier, therefore the active particle is more likely to remain attached to the carrier. This means that in an inhaled composition, the active particle which remains attached to the carrier particle may not reach the lung and may be deposited in the throat or on the tongue. Preferably, the particles produced according to the present invention have much lower cohesiveness than particles prepared by other methods including micronization and milling. With respect to a measure of cohesiveness, since all substrates will be different with respect to their cohesive and adhesive properties, the CAB ratio is a dimensionless value which is a more useful measure for comparison. Preferably, the particles produced according to the present invention have CAB ratios with the carrier particles of 0.8-1.3, more preferably 0.9-1.2, more preferably, 1.0- 1.1. This is a careful balance between the cohesion of the drug with itself and the adhesion of the drug with the carrier.
The cohesive-adhesive balance (CAB) of micronized Fluticasone Propionate (FP) and batches of FP engineered by the method of the current invention (samples 2 and 3) and by a different method exemplified in WO 2008/114052 A1 (sample 4), as described in Example 1, were determined with respect to crystalline substrates of FP and lactose monohydrate. The CAB force balance of the different batches with respect to the crystalline substrates was determined as follows:
Particles (n=3) of all batches of FP were attached onto standard V-shaped tipless cantilevers (DNP-020, DI, CA, USA) using an epoxy resin glue (Araldite, Cambridge, UK).
Smooth crystals of lactose were produced on cooling of a heated saturated droplet sandwiched between cover slips. Smooth drug crystals were produced using sitting-drop anti-solvent crystallisation, in which the active was dissolved in acetone and the anti-solvent employed was water.
Individual force curves (n=1024) were conducted over a 10 μm×10 μm area at a scan rate of 4 Hz and a compressive load of 40 nN. Environmental conditions were maintained at a constant temperature of 20° C. (±1.5 ° C.) and relative humidity 45±3%.

SMILES | Surface Area [1] [m^2/g] | % FPF under stressed storage conditions [2] | FPF of FP compared with micronized sample [2] | FPF of FP compared with other samples [2] | adhesion values (FP-lactose interaction) ([3]; AFM force measurement) | adhesive FP-Lactose interactions, times greater than cohesive FP-FP interactions (CAB analysis) ([3]; listed as sample 3 FP) | adhesive FP-Lactose interactions, times greater than cohesive FP-FP interactions (CAB analysis) ([3]; listed as sample 2 FP) | adhesion values ([3]; AFM force measurement) [nN] | adhesiveness to lactose (FIG. 29) [3] | adhesive FP-Lactose interactions, times greater than cohesive FP-FP interactions (CAB analysis) [3] | adhesive FP-Lactose interactions, times greater than cohesive FP-FP interactions (CAB analysis) ([3]; listed as sample 4 FP)
CCC(=O)O[C@]1(C(=O)SCF)[C@H](C)C[C@H]2[C@@H]3C[C@H](F)C4=CC(=O)C=C[C@]4(C)[C@@]3(F)[C@@H](O)C[C@@]21C [Sample 3, Fluticasone propionate] | 10.79 | not significantly affected | greater than the micronized sample | greater than sample 4 and the micronized sample | 35-89 nN | 1.16 | – | – | – | – | –
CCC(=O)O[C@]1(C(=O)SCF)[C@H](C)C[C@H]2[C@@H]3C[C@H](F)C4=CC(=O)C=C[C@]4(C)[C@@]3(F)[C@@H](O)C[C@@]21C [Sample 2, Fluticasone propionate] | – | not significantly affected | greater than the micronized sample | greater than sample 4 and the micronized sample | 128-169 nN | – | 1.17 | – | – | – | –
CCC(=O)O[C@]1(C(=O)SCF)[C@H](C)C[C@H]2[C@@H]3C[C@H](F)C4=CC(=O)C=C[C@]4(C)[C@@]3(F)[C@@H](O)C[C@@]21C [micronized FP, Fluticasone Propionate] | 6.55 | not significantly affected | – | – | – | – | – | 169 to 249 | significantly more adhesive to lactose | 1.36 | –
CCC(=O)O[C@]1(C(=O)SCF)[C@H](C)C[C@H]2[C@@H]3C[C@H](F)C4=CC(=O)C=C[C@]4(C)[C@@]3(F)[C@@H](O)C[C@@]21C [Sample 4, fluticasone propionate, reference compound] | 7.49 | not significantly affected | greater than the micronized sample | poor performance | 400-800 nN | – | – | – | least adhesive to lactose and SX | – | almost equal
